How the values were obtained:
[1] = system: wild-type Yarrowia lipolytica; experiment: Chemo-stat fermentation with cell retention using NVR as carbon and energy source; conditions: for Flux: steady state, 2% (v/v) NVR, ~215 mL/h, biomass dilution rate ~0.025 h^-1
Text: The experimental set-up provided for a NVR Feed, Nutrient Feed and Base Feed (12% (v/v) NH3 (aq.)) that was filter sterilized into the fermenter via peristaltic pumps. Furthermore, a peristaltic pump provided the necessary cross-flow retentate flow rate to the hollow fibre membrane, a peristaltic pump allowed withdrawal of permeate and a peristaltic pump allowed for a biomass bleed from the fermenter.
The chemo-stat's control philosophy entailed manual feed ratio control of the NVR Feed to Nutrient Feed rates, pH control via the Base Feed, temperature control via cooling water supply to the fermenter's jacket, fixed aeration & agitation rates via the respective feedback loops, fixed cross-flow rate via the retentate pump's variable speed drive, manual level control via the permeate pump and manual dilution rate control via the bleed pump.
The initial charge minimal media was prepared (6.7 g/L yeast base without amino acids+(NH4)2SO4, 15 g/L glucose, 75 mg/L citric acid (Mr.=210 g/mol), 5.8 g/L sodium citrate (Mr.=294.1 g/mol), 10.7 g/L K2HPO4 (Mr.=174 g/mol), 5.2 g/L KH2PO4 (M=136.1 g/mol), and 2 mL/L antifoam) and the Nutrient Feed was prepared (6.7 g/L yeast base without amino acids+(NH4)2SO4, 75 mg/L citric acid (Mr.=210 g/mol), 5.8 g/L sodium citrate (Mr.=294.1 g/mol), 10.7 g/L K2HPO4 (Mr.=174 g/mol), 5.2 g/L KH2PO4 (M=136.1 g/mol), and 2 mL/L antifoam). The control parameters for the fermenter were set up (A1 and A2: 1 vvm aeration, pH 7.0, DO calibration at pH 7.0 and 1 vvm to 100% saturation, 28° C., 750 rpm initial agitation until glucose depletion, 1250 rpm final agitation after glucose depletion, manual antifoam).
The fermenter was inoculated with a 10% (v/v) inoculum from a wild-type Yarrowia lipolytica shake flask that was grown overnight from a cryopreserved stock.

Y. lipolytica strains = experiment: Growth of yeasts in the presence of lactones; format: cell-based, Yarrowia lipolytica; conditions: 0.1 to 1 g/L lactone; strains adapted to 3% NVR, especially Iss#137
Text: FIG. 18 contains three line graphs showing the growth of selected yeasts in the presence of 0.1-1 g/L lactones (γ-butyrolactone, ε-caprolactone, and δ-valerolactone). Iss#125 is a S. cerevisiae control strain. Iss#134 is a Y. lipolytica strain isolated from plates after slow growth on 3% (v/v) NVR+YPD media. Iss#137 is a Y. lipolytica strain isolated from chemo-stat using synthetic NVR component feed.
A cell retention chemo-stat was required to avoid cell wash-out. […] HPLC analysis confirmed that NVR contains a high concentration (ca. 92 g/L) of valerolactone.

[2] = Hydrolysis of oligomers by cutinases (drop plates); format: biochemical; conditions: expressed in E. coli or Y. lipolytica; 12 hours at 28° C.
Text: Cutinases from F. solani and A. oryzae were expressed in E. coli BL21 Star with His6 tags using the pET151/D-TOPO vector and the TOPO cloning system (Invitrogen) and purified on His-trap columns. The enzymes were also expressed as secreted extracellular proteins in a Y. lipolytica host strain deficient in the extracellular lipases LIP2, LIP7 & LIP8 (See, Example 7) and the supernatants concentrated 10 fold. Activity was confirmed using p-nitrophenyl butyrate as substrate, commercial lipase as a positive control and the concentrated soluble extract from E. coli transformed with the empty vector as negative control. […] (See, FIG. 26). This is further illustrated by the increase in monomeric acids, especially in the C-6 monomer components (hydroxycaproic acid, adipic acid, caproic acid) and valeric acid, released from the oligomers when cutinases (10 μl supernatant) were incubated with 4% NVR or 4% COP acid (v/v) (1 ml) overnight (See, FIGS. 27A and B).

[3] = Lactone hydrolases incubated with NVR (LC/MS); format: biochemical; conditions: 4% v/v NVR, pH 7.0, 60 minutes
Text: (§1) The lactone hydrolase from Acinobacter was expressed (See, FIG. 3) as a secreted protein in Y. lipolytica with all major extracellular lipases deleted (strain JMY1212, Δlip-2,7,8,11). The secreted hydrolase was concentrated 10 fold by centrifugal filtration of the supernatant (Amicon® Ultra Ultracel® 10K). This enzyme, as well as the lactone hydrolyzing enzymes from Brevibacterium epidermidis and Euglena gracilis were also expressed in E. coli BL21 Star™ (DE3) cells as His tagged proteins using the pET151 inducible expression vector, and the enzymes were purified using HisTrap™ FF columns (GE Healthcare), and concentrated as before by centrifugal filtration to 1 ml after elution from the columns. Activity assays were performed in phosphate buffer (50 mM, pH 7.0) and ZnCl2 (75 mM) containing the substrate (valerolactone, caprolactone, NVR, or COP acid) (4% v/v). Reactions were started by adding 50 μl concentrated enzyme and incubated with shaking for 60 minutes. Reactions were terminated by the addition of 500 μl acetonitrile and analyzed by LC/MS. The buffer control contained 5% glycerol in place of enzyme. To assess hydrolysis of oligomers in COP acid, 10 μl enzyme was added to agar plates (1.5% (w/v)) containing 4% (v/v) COP acid. All experiments were performed in triplicate. […]

[4] = Lactone hydrolase activity assay (LC/MS); format: biochemical; conditions: 4% v/v substrate, pH 7.0, 60 minutes
Text: as §1

[5] = Plate assays, results summarised in words; format: biochemical; conditions: synthetic PCL diol, NVR and/or COP acid oligomers as named in the sentence; pH 5-8
Experimental: For plate assays, agar plates (1.5% agarose) containing 1-4% polycaprolactone (PCL), NVR or COP acid (v/v) were prepared with 50 mM citrate, Tris/HCl, or phosphate buffers to assay enzymes for hydrolytic activity at pH 3.5, 5, 7, or 8. The molecular weight of PCL is 530 g/mol. Wells with a ca. 3 mm diameter were made in the plates, and enzyme added (1 U/well). Clearance zones were measured after 24 hours. Tables 3 and 4 show the results of the agar plate assay with commercial esterases and lipases, respectively, for hydrolysis of oligomers in NVR, COP acid and caprolactone polymers. […] FIG. 5 is a bar graph comparing the relative activity of esterases at different pHs as measured by the diameter of the clearance zone in the plate assay.
See, Table 3, 4 and FIG. 4.

[6] = Agar plate clearance zone assay on NVR; format: biochemical; conditions: lipases; 1% (v/v) NVR, pH = 7; 1 U/well, 24 hours
Text: (§2) Screening methods for hydrolysis of oligomeric esters in NVR and COP acid with commercially available lipases and esterases were verified using commercially available caprolactonediol (CPL) polymers with a range of molecular weights. Two screening methods were used to identify candidate enzymes, including an agar plate assay where radial enzyme diffusion produces clearance zones if the oligomer in the agar is hydrolyzed, and a biotransformation assay in which the hydrolysis of the polymer to monomers was assayed by HPLC with UV detection or LC-MS to quantify the concentrations of monomers. […]
(§3) For plate assays, agar plates (1.5% agarose) containing 1-4% polycaprolactone (PCL), NVR or COP acid (v/v) were prepared with 50 mM citrate, Tris/HCl, or phosphate buffers to assay enzymes for hydrolytic activity at pH 3.5, 5, 7, or 8. […] Clearance zones were measured after 24 hours. […] FIG. 5 is a bar graph comparing the relative activity of esterases at different pHs as measured by the diameter of the clearance zone in the plate assay.

[7] = Agar plate clearance zone assay on COP acid; format: biochemical; conditions: lipases; 4% (v/v) COP acid, pH = 7; 1 U/well, 24 hours
Text: as §2, §3

For `O=C(O)CCCCO` [5-hydroxyvaleric acid], the Flux [1] was 32 % of valerate uptake.

With `O=C(O)CCCCCO` [6-hydroxycaproic acid] the Flux [1] was 18 % of valerate uptake.

For `O=C(O)CCCCC(=O)O` [adipic acid], the “steady state flux of catabolism relative to the catabolism of valeric acid” value ([1]; not told) was 18%.

For `CCCC(=O)O` [butyric acid], the “steady state flux of catabolism relative to the catabolism of valeric acid” value ([1]; Table 6) was 7% and the Flux [1] was 7 % of valerate uptake.

In the case of `CCCCCC(=O)O` [caproic acid], the “steady state flux of catabolism relative to the catabolism of valeric acid” value ([1]; Table 6) is reported as 42% and the Flux [1] is reported as 42 % of valerate uptake.

For `O=C(O)CCCC(=O)O` [glutaric acid], the Flux [1] was 12 % of valerate uptake.

With `O=C1CCCO1` [γ-butyrolactone] the Flux [1] was 0 % of valerate uptake.

For `O=C1CCCCO1` [δ-valerolactone], the “effect of lactone on growth of Y. lipolytica strains” value (Y. lipolytica strains) was “inhibitory”.

With “AoC: Aspergillus oryzae cutinase (EMBL D38311.1, UniProt P52956)” the “hydrolysis of oligomers in NVR and COP acid (clearance zones)” value [2] was “able to hydrolyze oligomers in NVR and COP acid”.

B1: ChnC from Acinobacter: Lactone hydrolase, GenBank AAG10029.1, SEQ ID NO:1 (protein)
chain: MNSTQSNTQFLFDLYANWSRRMQENPNMTIEDFRSMFDEWHQPTLEPEEVSYKFDVVAGVEGLWIYPKDADLSKVIIYTHGGGFAVGSSASHRKLVGHLAKYLGVSAFVVDYRRSPEHVFPAQIQDVTAVYKELLQRGFTAKNMLTAGDSAGGNLAISTVLNLRNEGIELPGAVIAFSPWLDMEHKGETLISNDATDALITVDLLKGMSQMFLGEHGDPANPLANPLKANYQVFPRLYINAGSVESLVDNATRLADIAKKEGVDVTLSVVDNMQHVFPFLAGRASEADQELAKIAQWFKA
modifications: Acinetobacter sp. SE19
In the case of B1, the “hydrolysis of valerolactone in NVR” value [3] is reported as “hydrolyzed valerolactone” and the lactone hydrolyzing activity [4] is reported as “highest activity”.

B2: ChnC from Brevibacterium: Lactonohydrolase, GenBank AAK73167.2, SEQ ID NO:2 (protein, listed as Brevibacterium epidermidis)
chain: MPTSPPTVSATPMTWSSRRTGRPTSASSASTSWAGPITSSPMSSRQHRRHLGVVASGLSFPNGMVITPDGKTLIVNELFGNKITAFDIGADGKLANKRDFANFGEIGDEPDVAKRIEAATIVPDGLALDAEGAVWIANTVNQNATRIAEGGQILDTVDTAPEGIFAVALGGDDGKTLFLCAAPDWDEGARSKAREGRMLATTVAVPHAGRP
For B2, the “hydrolysis of valerolactone in NVR” value [3] was “hydrolyzed valerolactone”.

B3: L7: Commercial lipase from Rhizomucor miehei (protein, UniProt P19515 95-363, looked up)
Lipase: SIDGGIRAATSQEINELTYYTTLSANSYCRTVIPGATWDCIHCDATEDLKIIKTWSTLIYDTNAMVARGDSEKTIYIVFRGSSSIRNWIADLTFVPVSYPPVSGTKVHKGFLDSYGEVQNELVATVLDQFKQYPSYKVAVTGHSLGGATALLCALDLYQREEGLSSSNLFLYTQGQPRVGDPAFANYVVSTGIPYRRTVNERDIVPHLPPAAFGFLHAGEEYWITDNSPETVQVCTSDLETSDCSNSIVPFTSVLDHLSYFGINTGLCT
With B3 the “hydrolytic activity in plate assays (in words)” value [5] was “large clearance zones”, the “Substrate Clearance Zone Diameter” value [6] was 1.7 and the “Substrate Clearance Zone Diameter” value [7] was 2.2.

Reference: US9783833B2, “Biocatalytic methods to convert cyclohexane oxidation process waste streams to useful products” (INVISTA NORTH AMERICA S.A. R.L., priority 2011, dated 2017)
